How the values were obtained:
[1] = test system: male NMRI mice; assay: Neuroprotective effect in magnesium chloride induced global cerebral ischemia in mice; format: in vivo; details: intraperitoneal, 30 minutes before i.v. saturated magnesium chloride; linear regression over four doses
Experimental: Neuroprotective Effect in Magnesium Chloride Induced Global Cerebral Ischemia in Mice
The examination was carried out on groups consisting of 10 male NMRI mice weighing 20–25 g. The compounds to be examined were dissolved in a mixture of 5 volumes of 5M aqueous hydrochloric acid and 95 volumes of water, then the pH value of the solution was adjusted to 3 by the addition of 1M aqueous sodium hydroxide solution. The solution obtained was administered intraperitoneally in a volume of 10 ml/kg. Each compound was tested at four increasing dose levels, and a further group of animals was treated only with the vehicle (the latter was the control group). 30 minutes after treatment, all mice received an intravenous injection of saturated aqueous magnesium chloride solution in a volume of 5 ml/kg. This injection caused an immediate cardiac arrest and complete cerebral ischemia. The increase in survival time (i.e. the interval between the injection of magnesium chloride and the last observable gasp) was considered as a measure of the neuroprotective effect according to Berga et al. [Berga, P. et al., Synergistic interactions between piracetam and dihydroergocristine in some animal models of cerebral hypoxia and ischaemia, Arzneim. -Forsch., 36, 1314–1320 (1986)]. Percentage changes in survival time were calculated in comparison to that measured in the control group, and, from the values obtained, the dose prolonging survival by 50% (PD50) was calculated by linear regression analysis.

[2] = test system: male Wistar rats; assay: Duration of action in rats as assessed from the decrease in body core temperature (radiotelemetry); format: in vivo; details: intraperitoneal, mean of 6 animals
Experimental: Duration of Action in Rats as Assessed From the Decrease in Body Core Temperature
One week prior to treatments, 6 male Wistar rats were anaesthetized by administering 60 mg/kg of pentobarbital sodium [sodium 5-ethyl-5-(1-methylbutyl)barbiturate]intraperitoneally. Using sterile surgical procedures, TL11M2C50-PXT or TA10TA-F40 type radiotelemetry transmitters (Data Sciences International, St. Paul, Minn., USA) were implanted into the peritoneal cavity of the animals. The transmitters permitted continuous monitoring of the core body temperature. After implantation, the rats were treated with an antibiotic (benzathine-benzylpenicillin was administered in a dose of 1 ml/kg i.m.). [The chemical name of benzathine-benzylpenicillin: [2S-(2α,5α,6β)]-3,3-dimethyl-7-oxo-6-[(phenoxyacetyl)amino]-4-thia-1-azabicyclo[3.2.0]heptane-2-carboxylic acid]. The animals were housed individually in type 2 plastic rat cages with free access to food and tap water.
The compounds to be examined were dissolved in a mixture of 5 volumes of 5M aqueous hydrochloric acid and 95 volumes of water, then the pH value of the solution was adjusted to 3 by the addition of 1M aqueous sodium hydroxide solution. The solution obtained was administered intraperitoneally in a volume of 10 ml/kg.
Radio signals emitted by the transmitters were detected by RLA1000 or RLA2000 type receivers placed under each cage. Data were collected and saved by a Dataquest IV computerized data acquisition system. The computer was set to sample body temperature for 10 seconds in every second minute. Mean values for 30 min. periods over the whole day were calculated running the “sort utility” of the Dataquest IV system. The upper and lower limits of the evaluating routine were set to exclude biologically improbable values. Individual body temperature curves were averaged for the 6 animals.
Peak effect (PE) was measured as the maximum decrease in body temperature in comparison to the last value prior to treatment (control value). Using the mean values, duration of action (D) of the compounds was determined. This is the time interval from treatment to return of body temperature to the control level.

[3] = N-acetylation in rat liver slices (N-acetyl metabolite by HPLC); format: in vitro ADME, Wistar rats; details: 50 μM compound, 37° C.
Experimental: Reduction of the rate of N-acetylation due to ortho substitution
Liver slices of Wistar rats were incubated in oxigenized Krebs-Ringer solution at 37° C. in the presence of 50 μM of 2,3-benzodiazepine derivative examined. 0.5 ml aliquots were taken at the beginning of the examination, then after 30 and 60 minutes. Plasma proteins were precipitated with perchloric acid and, after alkalization, the 2,3-benzodiazepine derivatives were extracted with chloroform. The chloroform solutions were evaporated to dryness, the residue was dissolved in the corresponding eluent. The 2,3-benzodiazepine derivative used and the N-acetyl metabolite thereof were determined by high pressure liquid chromatography (Beckman System Gold HPLC, C-18 reversed-phase column) using an UV detector (at 240 nm). Different eluents were used for the optimal separation of the compounds. In case of the compound according to Example 1 and the corresponding 1-(4-amino-phenyl) analogue, the eluent consisted of a mixture of 50% of 2 mM heptafluoro-butyric acid, 25% of methanol and 25% of acetonitrile. For the compound according to Example 3 and the corresponding 1-(4-amino-phenyl) analogue, the eluent was a mixture of 50% of 2 mM heptafluorobutyric acid, 20% of methanol and 30% of acetonitrile. For the compound according to Example 4 and the corresponding 1-(4-amino-phenyl) analogue, the eluent consisted of a mixture of 50% of 2 mM heptafluorobutyric acid and 50% of acetonitrile.
The percentage of N-acetyl metabolite content of the sample taken at a certain time was calculated by dividing the hundredfold of the peak area of the metabolite with the sum of the peak areas of the 2,3-benzodiazepine derivative used and the N-acetyl metabolite. The results obtained are shown in Table 1 in which the concentrations determined after 0, 30 and 60 minutes are indicated.

## COc1ccc2c(c1)C(c1ccc(N)c(C)c1)=NN(C(C)=O)C(C)C2 (racemic)
other
  melting point: 169 to 171 °C

## CC(=O)N1N=C(c2ccc(N)c(C)c2)c2ccc(Cl)cc2CC1C (racemic)
other
  melting point: 200 to 205 °C

## CC(=O)N1N=C(c2ccc(N)c(C)c2)c2cc(Cl)ccc2CC1C (racemic) [Example 1, (±)-3-Acetyl-1-(4-amino-3-methylphenyl)-4,5-dihydro-8-chloro-4-methyl-3H-2,3-benzodiazepine]
[1]
  PD50 (dose prolonging survival by 50%): 4.6 mg/kg
[2]
  D (duration of action, time from treatment to return of body temperature to control level): 20 h
  PE (peak effect, maximum decrease in body temperature vs. last value prior to treatment): −2.34 Δ° C.

## CCC(=O)N1N=C(c2ccc(N)c(C)c2)c2cc(Cl)ccc2CC1C (racemic) [Example 2, (±)-1-(4-Amino-3-methylphenyl)-4,5-dihydro-8-chloro-4-methyl-3-propionyl-3H-2,3-benzodiazepine]
[2]
  D (duration of action, time from treatment to return of body temperature to control level): 6 h
  PE (peak effect, maximum decrease in body temperature vs. last value prior to treatment): −2.04 Δ° C.

## CC(=O)N1N=C(c2ccc(N)c(Cl)c2)c2cc(Cl)ccc2CC1C (racemic) [Example 3, (±)-3-Acetyl-1-(4-amino-3-chlorophenyl)-4,5-dihydro-8-chloro-4-methyl-3H-2,3-benzodiazepine]
other
  melting point: 143 to 144 °C

## CC(=O)N1N=C(c2ccc(N)c(C)c2)c2cc(Cl)c(Cl)cc2CC1C (racemic) [Example 4, (±)-3-Acetyl-1-(4-amino-3-methylphenyl)-4,5-dihydro-7,8-dichloro-4-methyl-3H-2,3-benzodiazepine]
[1]
  PD50 (dose prolonging survival by 50%): 9.0 mg/kg
[2]
  D (duration of action, time from treatment to return of body temperature to control level): 19 h
  PE (peak effect, maximum decrease in body temperature vs. last value prior to treatment): −3.09 Δ° C.

## CCC(=O)N1N=C(c2ccc(N)c(C)c2)c2cc(Cl)c(Cl)cc2CC1C (racemic) [Example 5, (±)-1-(4-Amino-3-methylphenyl)-4,5-dihydro-7,8-dichloro-4-methyl-3-propionyl-3H-2,3-benzodiazepine]
[1]
  PD50 (dose prolonging survival by 50%): 12.3 mg/kg

## CC(=O)N1N=C(c2ccc(N)cc2)c2cc(Cl)ccc2CC1C (stereo not shown) [Example 1a, 3-acetyl-1-(4-amino-phenyl)-4,5-dihydro-8-chloro-4-methyl-3H-2,3-benzo-diazepine, reference compound]
[1]
  PD50 (dose prolonging survival by 50%): 10.4 mg/kg

## CC(=O)N1N=C(c2ccc(N)cc2)c2cc(Cl)ccc2CC1C (stereo not shown) [Example 1a, 3-acetyl-1-(4-amino-phenyl)-4,5-dihydro-8-chloro-4-methyl-3H-2,3-benzo-diazepine]
[3]; incubation time 0 min
  Amount of N-acetyl metabolite in %: 0%
[3]; incubation time 30 min
  Amount of N-acetyl metabolite in %: 18%
[3]; incubation time 60 min
  Amount of N-acetyl metabolite in %: 31%

## CCC(=O)N1N=C(c2ccc(N)cc2)c2cc(Cl)ccc2CC1C (stereo not shown) [Example 2a, 1-(4-aminophenyl)-4,5-dihydro-8-chloro-4-methyl-3-propionyl-3H-2,3-benzo-diazepine, reference compound]
[2]
  D (duration of action, time from treatment to return of body temperature to control level): 4 h
  PE (peak effect, maximum decrease in body temperature vs. last value prior to treatment): −1.87 Δ° C.

## CC(=O)N1N=C(c2ccc(N)cc2)c2cc(Cl)c(Cl)cc2CC1C (stereo not shown) [Example 4a, 3-acetyl-1-(4-amino-phenyl)-4,5-dihydro-7,8-dichloro-4-methyl-3H-2,3-benzo-diazepine, reference compound]
[1]
  PD50 (dose prolonging survival by 50%): 11.0 mg/kg
[2]
  D (duration of action, time from treatment to return of body temperature to control level): 3.5 h
  PE (peak effect, maximum decrease in body temperature vs. last value prior to treatment): −1.72 Δ° C.

## CCC(=O)N1N=C(c2ccc(N)cc2)c2cc(Cl)c(Cl)cc2CC1C (stereo not shown) [Example 5a, 1-(4-aminophenyl)-4,5-dihydro-7,8-dichloro-4-methyl-3-propionyl-3H-2,3-benzo-diazepine, reference compound]
[1]
  PD50 (dose prolonging survival by 50%): 14.6 mg/kg

Reference: patent publication US7189711B2, “2, 3-benzodiazepine derivatives and pharmaceutical compositions containing the same as the active ingredient” (Egis Gyogyszergyar RT., priority 2000, dated 2007)
